Columns and labels:
Phytophthora infestans = details: in vivo
[1] = test system: Pyrenophora [syn. Drechslera] teres; test: Use Example 4: net blotch of barley caused by Pyrenophora teres, second test; type: in vivo; details: individual active compound
Alternaria solani [2] = test: Use Example 6: activity against early blight of tomato caused by Alternaria solani (second test); type: in vivo; details: individual active compound
Sphaerotheca fuliginea = test: Use Example 8: activity against mildew on cucumber leaves caused by Sphaerotheca fuliginea, protective application; details: in vivo
Plasmopara viticola = test: Comparative Test 3: activity against Peronospora of grapevines caused by Plasmopara viticola; type: in vivo; details: individual active compound
Alternaria solani [3] = test: Comparative Test 1: activity against early blight of tomato caused by Alternaria solani; type: in vivo; details: individual active compound
Botrytis cinerea = test: Use Example 7: activity against gray mold on bell pepper leaves caused by Botrytis cinerea, protective application; type: in vivo; details: individual active compound
[4] = test system: Pyrenophora [syn. Drechslera] teres; test: Use Example 4: activity against net blotch of barley caused by Pyrenophora teres, 1-day protective application (first test); type: in vivo; details: individual active compound
[5] = test system: Erysiphe [syn. Blumeria] graminis forma specialis. Tritici; test: Use Example 5: activity against mildew of wheat caused by Erysiphe [syn. Blumeria] graminis forma specialis tritici, 3-day protective application; type: in vivo, Erysiphe graminis f. sp. tritici; details: individual active compound

O=C(Nc1ccccc1-c1ccc(Cl)cc1)c1cccnc1Cl [boscalid (L-2), 2-chloro-N-(4′-chlorobiphenyl-2-yl)nicotinamide]
Efficacy in % of the untreated control (Phytophthora infestans): 0%

CC(C)NC(=O)N1CC(=O)N(c2cc(Cl)cc(Cl)c2)C1=O [iprodione (F-1), N-isopropyl-3-(3,5-dichlorophenyl)-2,4-dioxoimidazolidine-1-carboxamide]
Efficacy in % of the untreated control ([1]; 12.5 ppm in the spray liquor): 0% | Efficacy in % of the untreated control ([1]; 50 ppm in the spray liquor): 0% | Efficacy in % of the untreated control (Alternaria solani [2]; 12.5 ppm in the spray liquor): 0% | Efficacy in % of the untreated control (Alternaria solani [2]; 100 ppm in the spray liquor): 0%

N#Cc1c[nH]cc1-c1cccc2c1OC(F)(F)O2 [fludioxonil (O-1), 4-(2,2-difluorobenzo[1,3]dioxol-4-yl)-1H-pyrrole-3-carbonitrile]
Efficacy in % of the untreated control (Sphaerotheca fuliginea): 56%

CC1CCN(c2c(-c3c(F)cccc3Cl)c(Cl)nc3ncnn23)CC1 [(π)]
Efficacy in % of the untreated control (Plasmopara viticola; 5 ppm in the spray liquor): 5% | Efficacy in % of the untreated control (Plasmopara viticola; 10 ppm in the spray liquor): 19% | Efficacy in % of the untreated control (Phytophthora infestans): 0% | Efficacy in % of the untreated control (Alternaria solani [3]; 2.5 ppm in the spray liquor): 0% | Efficacy in % of the untreated control (Alternaria solani [3]; 5 ppm in the spray liquor): 21% | Efficacy in % of the untreated control (Alternaria solani [3]; 10 ppm in the spray liquor): 44%

S1SSSSSSS1 [sulfur (M-1), sulfur]
Efficacy in % of the untreated control (Botrytis cinerea; 0.3125 ppm in the spray liquor): 22% | Efficacy in % of the untreated control (Botrytis cinerea; 0.625 ppm in the spray liquor): 56%

CC1(C)CCC(Cc2ccc(Cl)cc2)C1(O)Cn1cncn1 (stereo not shown) [metconazole (A-3), 5-(4-chlorobenzyl)-2,2-dimethyl-1-[1,2,4]triazol-1-ylmethylcyclopentanol]
Efficacy in % of the untreated control ([4]; 1.25 ppm in the spray liquor): 0% | Efficacy in % of the untreated control ([4]; 2.5 ppm in the spray liquor): 0% | Efficacy in % of the untreated control ([4]; 5 ppm in the spray liquor): 0%

N#Cc1sc2c(=O)c3ccccc3c(=O)c=2sc1C#N [dithianon (L-3), 5,10-dioxo-5,10-dihydronaphtho[2,3-b][1,4]dithiine-2,3-dicarbonitrile]
Efficacy in % of the untreated control (Phytophthora infestans): 0%

OC(Cn1cncn1)(c1ccc(F)cc1)c1ccccc1F (stereo not shown) [flutriafol (A-2), 1-(4-fluorophenyl)-1-(2-fluorophenyl)-2-[1,2,4]triazol-1-ylethanol]
Efficacy in % of the untreated control ([4]; 1.25 ppm in the spray liquor): 0% | Efficacy in % of the untreated control ([4]; 2.5 ppm in the spray liquor): 0% | Efficacy in % of the untreated control ([4]; 5 ppm in the spray liquor): 0%

COc1ccc(C(=CC(=O)N2CCOCC2)c2ccc(Cl)cc2)cc1OC [dimethomorph (G-1), 3-(4-chlorophenyl)-3-(3,4-dimethoxyphenyl)-1-morpholin4-ylpropenone]
Efficacy in % of the untreated control (Alternaria solani [3]; 3.125 ppm in the spray liquor): 0% | Efficacy in % of the untreated control (Alternaria solani [3]; 12.5 ppm in the spray liquor): 0% | Efficacy in % of the untreated control (Alternaria solani [3]; 25 ppm in the spray liquor): 0% | Efficacy in % of the untreated control (Alternaria solani [3]; 50 ppm in the spray liquor): 0%

COCC(=O)N(c1c(C)cccc1C)C(C)C(=O)OC (racemic) [metalaxyl (C-1), methyl N-(methoxyacetyl)-N-(2,6-xylyl)-DL-alaninate]
Efficacy in % of the untreated control (Alternaria solani [3]; 6.25 ppm in the spray liquor): 0% | Efficacy in % of the untreated control (Alternaria solani [3]; 50 ppm in the spray liquor): 0%

manganese ethylenebis(dithiocarbamate) zinc complex [mancozeb (K-1)]
Efficacy in % of the untreated control ([1]; 6.3 ppm in the spray liquor): 0% | Efficacy in % of the untreated control ([1]; 12.5 ppm in the spray liquor): 0% | Efficacy in % of the untreated control ([1]; 50 ppm in the spray liquor): 0%

CC(C)OC(=O)c1cc(C(=O)OC(C)C)cc([N+](=O)[O-])c1 [nitrophthal-isopropyl (N-1), diisopropyl 5-nitroisophthalate]
Efficacy in % of the untreated control (Botrytis cinerea; 12.5 ppm in the spray liquor): 0% | Efficacy in % of the untreated control (Botrytis cinerea; 100 ppm in the spray liquor): 33%

COC(=O)N(OC)c1ccccc1COc1ccn(-c2ccc(Cl)cc2)n1 [pyraclostrobin (B-1), methyl N-{2-[1-(4-chlorophenyl)-1H-pyrazol-3-yloxymethyl]phenyl}(N-methoxy)carbamate]
Efficacy in % of the untreated control (Alternaria solani [2]; 0.3125 ppm in the spray liquor): 22% | Efficacy in % of the untreated control (Alternaria solani [2]; 0.625 ppm in the spray liquor): 56%

zinc ammoniate ethylenebis(dithiocarbamate) [metiram (K-2)]
Efficacy in % of the untreated control ([1]; 12.5 ppm in the spray liquor): 0% | Efficacy in % of the untreated control ([1]; 50 ppm in the spray liquor): 0% | Efficacy in % of the untreated control ([1]; 100 ppm in the spray liquor): 0%

N#Cc1c(Cl)c(Cl)c(Cl)c(C#N)c1Cl [chlorothalonil (Q-1), 2,4,5,6-tetrachloroisophthalonitrile]
Efficacy in % of the untreated control ([1]; 12.5 ppm in the spray liquor): 0% | Efficacy in % of the untreated control ([1]; 50 ppm in the spray liquor): 0% | Efficacy in % of the untreated control ([1]; 100 ppm in the spray liquor): 0%

CC(Cc1ccc(C(C)(C)C)cc1)CN1CC(C)OC(C)C1 [fenpropimorph (D-1), 4-[3-(4-tert-butylphenyl)-2-methylpropyl]-2,6-dimethylmorpholine]
Efficacy in % of the untreated control ([5]; 15 ppm in the spray liquor): 0% | Efficacy in % of the untreated control ([5]; 30 ppm in the spray liquor): 67%

O=C1C2CC=CCC2C(=O)N1SC(Cl)(Cl)Cl (stereo not shown) [captan (P-1), 2-trichloromethylsulfanyl-3a,4,7,7a-tetrahydroisoindole-1,3-dione]
Efficacy in % of the untreated control (Plasmopara viticola; 12.5 ppm in the spray liquor): 0% | Efficacy in % of the untreated control (Plasmopara viticola; 50 ppm in the spray liquor): 0% | Efficacy in % of the untreated control (Botrytis cinerea; 12.5 ppm in the spray liquor): 11% | Efficacy in % of the untreated control (Botrytis cinerea; 100 ppm in the spray liquor): 56%

Fc1ccc([C@]2(Cn3cncn3)O[C@H]2c2ccccc2Cl)cc1 (racemic) [epoxiconazole (A-1), (2RS,3SR)-1-[3-(2-chlorophenyl)-2,3-epoxy-2-(4-fluorophenyl)propyl]-1H-1,2,4-triazole]
Efficacy in % of the untreated control ([4]; 1.25 ppm in the spray liquor): 0% | Efficacy in % of the untreated control ([4]; 2.5 ppm in the spray liquor): 20% | Efficacy in % of the untreated control ([4]; 5 ppm in the spray liquor): 77%

COC(=O)NC(=S)Nc1ccccc1NC(=S)NC(=O)OC [thiophanate-methyl (L-4), dimethyl 1,2-phenylenebis(iminocarbonothioyl)bis(carbamate)]
Efficacy in % of the untreated control ([1]; 6.3 ppm in the spray liquor): 0% | Efficacy in % of the untreated control ([1]; 100 ppm in the spray liquor): 0% | Efficacy in % of the untreated control (Alternaria solani [2]; 100 ppm in the spray liquor): 0%

Reference: patent US20080039319A1, “Fungicidal Mixtures and Novel Triazolopyrimidines” (Basf Aktiengesellschaft, priority 2004, published 2008)
